These results are taken from US4454330A, “Two-functional-group-containing terpenoids, processes for the preparation of the same, and anti-ulcer agents containing the same” (Eisai Co., Ltd., priority 1980, dated 1984).

Structures are written as SMILES.

This assay deals with cold-restaint stress ulcer. The assay is described as follows: Effect on cold-restraint stress ulcer (Levine' method, rats). It is filed as in vivo, rats (SD family. To be noted: SD rats, female, about 170 g, 8-10 weeks age. As for the experimental part:
(1) Effect on Cold-Restaint Stress Ulcer
The inhibition effect of the test compound on the cold-restaint stress ulcer was determined according to the Levine' method using rats (SD family, female, weight about 170 g, 8-10 weeks age). The test compounds are set forth below.
As to `CC(=CCO)CCC=C(C)CCC=C(C)C(=O)O` [Compound A, 12-Hydroxy-2,6,10-trimethyl-2,6,10-dodecatrienoic acid], the “Inhibition Ratio (%) on the occurrence of the cold restrictive stress ulcer” value (“Inhibition Ratio (%) on the occurrence” for short) is reported as 74.6%.

In the case of `CC(=CCO)CCC=C(C)CCC=C(C)CCC=C(C)C(=O)O` [Compound C, 16-Hydroxy-2,6,10,14-tetramethyl-2,6,10,14-hexadecatetraenoic acid], the “Inhibition Ratio (%) on the occurrence” value is recorded as 79.2%.

On to `CC(=CCO)CCC=C(C)CCC=C(C)CCC=C(C)CCC=C(C)C(=O)O` [Compound D, 20-Hydroxy-2,6,10,14,18-pentamethyl-2,6,10,14,18-eicosapentaenoic acid], for which the “Inhibition Ratio (%) on the occurrence” value is reported as 49.5%.
